From ChEMBL document CHEMBL4130400, “Development of GLUT4-selective antagonists for multiple myeloma therapy” (Eur J Med Chem, 2017)

Experiments:
[1] = test system: KMS-11; assay: Antiproliferative activity against human KMS11 cells over-expressing GFP after 72 hrs by CellTiter-Glo assay; type: functional, cell-based; settings: KMS-11, 72 h
[2] = molecular target: T1, Solute carrier family 2, facilitated glucose transporter member 1 (Homo sapiens, UniProt P11166); assay: Antagonist activity at human GLUT1 expressed in HEK293 cells transfected with GLUT1 shRNA assessed as inhibition of [3H]2-deoxy-D-glucose uptake preincubated for 5 mins followed by [3H]2-deoxy-D-glucose addition and measured after 6 mins; type: cell-based
T1 sequence (P11166 whole entry): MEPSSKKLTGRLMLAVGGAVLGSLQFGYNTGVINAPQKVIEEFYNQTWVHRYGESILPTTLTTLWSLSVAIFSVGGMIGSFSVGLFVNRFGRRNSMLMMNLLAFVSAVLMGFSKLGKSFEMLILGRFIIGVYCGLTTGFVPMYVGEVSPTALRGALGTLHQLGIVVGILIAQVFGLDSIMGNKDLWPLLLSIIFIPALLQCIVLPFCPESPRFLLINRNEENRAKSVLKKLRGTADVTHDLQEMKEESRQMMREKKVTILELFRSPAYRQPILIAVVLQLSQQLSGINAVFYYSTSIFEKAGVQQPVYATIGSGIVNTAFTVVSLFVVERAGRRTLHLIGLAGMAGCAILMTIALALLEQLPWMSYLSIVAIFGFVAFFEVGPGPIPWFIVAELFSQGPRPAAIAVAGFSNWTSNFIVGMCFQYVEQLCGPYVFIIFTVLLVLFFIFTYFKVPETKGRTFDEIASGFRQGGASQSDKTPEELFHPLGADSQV

[3] = molecular target: T2, Solute carrier family 2, facilitated glucose transporter member 8 (Homo sapiens, UniProt Q9NY64); assay: Antagonist activity at human GLUT8 expressed in HEK293 cells transfected with GLUT1 shRNA assessed as inhibition of [3H]2-deoxy-D-glucose uptake preincubated for 5 mins followed by [3H]2-deoxy-D-glucose addition and measured after 6 mins; type: cell-based
T2 sequence (Q9NY64 whole entry): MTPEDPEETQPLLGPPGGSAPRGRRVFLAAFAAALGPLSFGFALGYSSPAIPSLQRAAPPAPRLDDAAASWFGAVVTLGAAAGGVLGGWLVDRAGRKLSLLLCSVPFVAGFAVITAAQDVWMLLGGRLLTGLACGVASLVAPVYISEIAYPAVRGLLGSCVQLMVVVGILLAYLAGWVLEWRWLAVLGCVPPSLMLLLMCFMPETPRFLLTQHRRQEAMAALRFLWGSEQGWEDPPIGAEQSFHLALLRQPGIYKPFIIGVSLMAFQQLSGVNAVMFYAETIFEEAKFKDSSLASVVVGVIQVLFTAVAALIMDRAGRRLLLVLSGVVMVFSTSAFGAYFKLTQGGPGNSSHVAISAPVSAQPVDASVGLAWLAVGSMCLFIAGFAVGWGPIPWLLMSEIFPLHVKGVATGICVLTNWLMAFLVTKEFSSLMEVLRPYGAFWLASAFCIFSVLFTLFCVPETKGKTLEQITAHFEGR

[4] = molecular target: T3, Solute carrier family 2, facilitated glucose transporter member 4 (Homo sapiens, UniProt P14672); assay: Antagonist activity at human GLUT4 expressed in HEK293 cells transfected with GLUT1 shRNA assessed as inhibition of [3H]2-deoxy-D-glucose uptake preincubated for 5 mins followed by [3H]2-deoxy-D-glucose addition and measured after 6 mins; type: cell-based
T3 sequence (P14672 whole entry): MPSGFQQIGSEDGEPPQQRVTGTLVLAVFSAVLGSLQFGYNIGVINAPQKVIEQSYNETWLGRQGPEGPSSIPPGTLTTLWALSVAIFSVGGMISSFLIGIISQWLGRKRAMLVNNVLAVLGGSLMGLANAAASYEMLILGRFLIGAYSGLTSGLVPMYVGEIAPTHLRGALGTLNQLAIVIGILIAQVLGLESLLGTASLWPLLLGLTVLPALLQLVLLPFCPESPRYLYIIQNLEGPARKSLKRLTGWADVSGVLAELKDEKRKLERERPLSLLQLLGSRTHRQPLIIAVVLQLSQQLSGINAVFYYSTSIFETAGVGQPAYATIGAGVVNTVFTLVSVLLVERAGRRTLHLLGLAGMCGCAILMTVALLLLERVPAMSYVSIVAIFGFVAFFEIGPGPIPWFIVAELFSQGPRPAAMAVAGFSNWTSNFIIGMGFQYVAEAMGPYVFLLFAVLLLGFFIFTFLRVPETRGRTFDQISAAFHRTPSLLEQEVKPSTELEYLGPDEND

SMILES | IC50 [1] [µM] | other results
COc1ccc(C(=O)N(Cc2ccncc2)Cc2cccc(OCC(=O)c3cccc(Br)c3)c2)cc1 | 18.7 | 
COc1ccc(C(=O)N(Cc2ccncc2)Cc2cccc(OCCc3ccc(C)cc3)c2)cc1 | 9.1 | 
COc1ccc(C(=O)N(Cc2ccncc2)Cc2cccc(OCCc3cccc(C(F)(F)F)c3)c2)cc1 | 8.9 | 
COc1ccc(C(=O)N(Cc2ccncc2)Cc2cccc(OCc3ccc([N+](=O)[O-])cc3)c2)cc1 | 15.4 | 
COc1ccc(C(=O)N(Cc2ccncc2)Cc2cccc(OCc3ccc(C(F)(F)F)cc3)c2)cc1 | 14.3 | 
COc1ccc(C(=O)N(Cc2ccncc2)Cc2cccc(OCCc3ccccc3)c2)cc1 | 16.9 | 
COc1ccc(C(=O)N(Cc2ccncc2)Cc2cccc(OCc3cccc([N+](=O)[O-])c3)c2)cc1 | 19.6 | 
COc1ccc(C(=O)N(Cc2ccncc2)Cc2cccc(OCC3CCOCC3)c2)cc1 | 17.7 | 
Oc1cccc(CNCc2ccncc2)c1 |  | IC50 [2]: > 100 µM; IC50 [3]: > 100 µM; IC50 [4]: 20 µM
COc1ccc(C(=O)N(Cc2ccncc2)Cc2cccc(OCC3CCN(C(=O)OC(C)(C)C)CC3)c2)cc1 | 5.1 | 
